Assay results reported in PubChem BioAssay (NCI).
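All cell lines were grown in 96-well plates and treated with compound for 48 hours. Abbreviation: GI50, concentration required for 50% inhibition of growth. The concentration for full growth arrest is given as TGI.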

Assays:
Test in all cases: inhibition of tumour cell growth, NCI panel, 48 h
[1] = system: U251 CNS
[2] = system: MDA-MB-435
[3] = system: OVCAR-8 ovarian
[4] = system: COLO 205 colon
[5] = system: CCRF-CEM leukemia
[6] = system: TK-10 renal
[7] = system: A498 renal
[8] = system: BT-549 breast
[9] = system: RXF 393 renal
[10] = system: M14 melanoma
[11] = system: RPMI-8226 leukemia
[12] = system: CAKI-1 renal
[13] = system: HS 578T breast
[14] = system: SF-295 CNS
[15] = system: IGROV1 ovarian
[16] = system: HT29 colon
[17] = system: HOP-92 NSCLC
[18] = system: NCI-H522 lung
[19] = system: HCT-116 colon
[20] = system: EKVX NSCLC
[21] = system: 786-0 renal
[22] = system: UO-31 renal
[23] = system: SK-MEL-2 melanoma
[24] = system: HOP-62 NSCLC
[25] = system: SK-OV-3 ovarian
[26] = system: NCI-H226 lung
[27] = system: OVCAR-5 ovarian
[28] = system: NCI-H460 lung
[29] = system: SNB-19 CNS
[30] = system: PC-3 prostate
[31] = system: T-47D breast
[32] = system: HCT-15 colon
[33] = system: UACC-257 melanoma
[34] = system: HL-60(TB) leukemia
[35] = system: MOLT-4 leukemia
[36] = system: SN12C renal
[37] = system: SNB-75 CNS
[38] = system: DU-145 prostate
[39] = system: MALME-3M melanoma
[40] = system: SK-MEL-28 melanoma
[41] = system: NCI-H23 lung
[42] = system: NCI/ADR-RES ovarian
[43] = system: UACC-62 melanoma
[44] = system: SF-539 CNS
[45] = system: OVCAR-4 ovarian
[46] = system: MDA-MB-231 breast
[47] = system: SK-MEL-5 melanoma
[48] = system: LOX IMVI melanoma
[49] = system: HCC-2998 colon
[50] = system: A549 NSCLC
[51] = system: OVCAR-3 ovarian
[52] = system: ACHN renal
[53] = system: K-562 leukemia
[54] = system: KM12 colon
[55] = system: MCF7 breast
[56] = system: SR leukemia
[57] = system: SF-268 CNS
[58] = system: SW-620 colon

SMILES: Oc1c(I)cc(I)cc1CN(Cc1ccccn1)Cc1ccccn1
- GI50 [1]: 0.419 µM
- TGI [1]: 11.7 µM
- GI50 [2]: 2.19 µM
- TGI [2]: 18.7 µM
- GI50 [3]: 0.547 µM
- TGI [3]: 23.2 µM
- GI50 [4]: 2 µM
- TGI [4]: 15.1 µM
- GI50 [5]: 0.385 µM
- TGI [5]: 30.8 µM
- GI50 [6]: 0.367 µM
- TGI [6]: 11.7 µM
- GI50 [7]: 1.29 µM
- TGI [7]: 6.19 µM
- GI50 [8]: 1.12 µM
- TGI [8]: 13.8 µM
- GI50 [9]: 1.86 µM
- TGI [9]: 9.76 µM
- GI50 [10]: 0.766 µM
- TGI [10]: 9.86 µM
- GI50 [11]: 1.17 µM
- TGI [11]: 14.1 µM
- GI50 [12]: 0.499 µM
- TGI [12]: 12.2 µM
- GI50 [13]: 2.06 µM
- TGI [13]: 16 µM
- GI50 [14]: 0.658 µM
- TGI [14]: > 27.1 µM
- GI50 [15]: 1.12 µM
- TGI [15]: 12.6 µM
- GI50 [16]: 3.93 µM
- TGI [16]: 18 µM
- GI50 [17]: 1.18 µM
- TGI [17]: 9.04 µM
- GI50 [18]: 2.04 µM
- TGI [18]: 28 µM
- GI50 [19]: 0.666 µM
- TGI [19]: 12.4 µM
- GI50 [20]: 0.987 µM
- TGI [20]: 17.2 µM
- GI50 [21]: 0.952 µM
- TGI [21]: 12 µM
- GI50 [22]: 0.554 µM
- TGI [22]: 3.07 µM
- GI50 [23]: 2.08 µM
- TGI [23]: 12.2 µM
- GI50 [24]: 0.311 µM
- TGI [24]: 8.45 µM
- GI50 [25]: 0.476 µM
- TGI [25]: 5.3 µM
- GI50 [26]: 1.16 µM
- TGI [26]: 7.48 µM
- GI50 [27]: 2.14 µM
- TGI [27]: 53.5 µM
- GI50 [28]: 0.456 µM
- TGI [28]: 8.68 µM
- GI50 [29]: 0.86 µM
- TGI [29]: > 64.2 µM
- GI50 [30]: 0.898 µM
- TGI [30]: 20.6 µM
- GI50 [31]: 1.34 µM
- TGI [31]: 10.6 µM
- GI50 [32]: 0.453 µM
- TGI [32]: > 40.6 µM
- GI50 [33]: 2.8 µM
- TGI [33]: 14.5 µM
- GI50 [34]: 1.3 µM
- TGI [34]: 7.03 µM
- GI50 [35]: 0.89 µM
- TGI [35]: 10.7 µM
- GI50 [36]: 1.23 µM
- TGI [36]: 33.6 µM
- GI50 [37]: 0.419 µM
- TGI [37]: 7.67 µM
- GI50 [38]: 1.57 µM
- TGI [38]: 20.4 µM
- GI50 [39]: 1.84 µM
- TGI [39]: 9.2 µM
- GI50 [40]: 1.44 µM
- TGI [40]: 31.6 µM
- GI50 [41]: 2.48 µM
- TGI [41]: 40.6 µM
- GI50 [42]: 1.13 µM
- TGI [42]: 6.46 µM
- GI50 [43]: 0.499 µM
- TGI [43]: 5.73 µM
- GI50 [44]: 0.855 µM
- TGI [44]: 10 µM
- GI50 [45]: 0.658 µM
- TGI [45]: > 44.1 µM
- GI50 [46]: 1.86 µM
- TGI [46]: > 51.3 µM
- GI50 [47]: 0.542 µM
- TGI [47]: 2.59 µM
- GI50 [48]: 0.629 µM
- TGI [48]: > 33.8 µM
- GI50 [49]: 4.18 µM
- TGI [49]: 34.7 µM
- GI50 [50]: 0.906 µM
- TGI [50]: 13.4 µM
- GI50 [51]: 1.83 µM
- TGI [51]: 15.1 µM
- GI50 [52]: 0.502 µM
- TGI [52]: 6.98 µM
- GI50 [53]: 0.548 µM
- TGI [53]: 14.6 µM
- GI50 [54]: 0.774 µM
- TGI [54]: > 42.3 µM
- GI50 [55]: 0.548 µM
- TGI [55]: > 39.9 µM
- GI50 [56]: 0.476 µM
- TGI [56]: 9.77 µM
- GI50 [57]: 0.575 µM
- TGI [57]: 16.1 µM
- GI50 [58]: 0.847 µM
- TGI [58]: 23.5 µM
